According to paper PMC7531004, “Discovery of gramicidin A analogues with altered activities by multidimensional screening of a one-bead-one-compound library” (Nature Communications, 2020):
Where a SMILES comes first, the peptide text is derived from it. [ ]: non-standard residue; d: D form. The star is where a group is joined. NHCH2CH2OH = OCCN*; For = O=C*

How the values were obtained:
[1] = test system: Streptococcus pyogenes SSI-9; assay: Antibacterial activity assay of bead-derived peptides (three concentrations); type: cell-based; set-up: key: +++: inhibition by the 640-fold diluted peptide solution; ++: inhibition by the 160-fold diluted solution; +: inhibition by the 40-fold diluted solution; -: no inhibition; settings: S. pyogenes, bead-derived peptide solution, three concentrations
How it was run: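 First, each peptide stock was diluted 4- and 16-fold in DMSO; next, the three solutions were mixed with S. pyogenes SSI-9 suspension (2 × 10^5 CFU) in cation-adjusted Mueller Hinton Broth plus 5% laked horse blood; finally, plates stood 18 h at 37 °C before checking for grown-cell precipitation.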

[2] = H+/Na+ transport assay of bead-derived peptides (one-point); type: biochemical; set-up: key: relative activity; mean of two control wells = 1.00; settings: bead-derived peptide solution, EYPC/EYPG LUVs;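 note: relative to parent gramicidin A activity set to 1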
How it was run: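 Miniaturized 96-well format. LUVs with entrapped pyranine (1.0 mM) were exposed to peptide for 30 min at RT. Intensities were expressed relative to full lysis by Triton X-100 and no treatment, with control-well mean = 1.00.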

[3] = test system: P388 mouse leukemia cells; settings: 92 h
How it was run: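 Peptide stocks diluted 250× in growth medium; P388 cells 1 × 10^4 cells/mL final; 37 °C, 5% CO2, 92 h. WST-1 + 1-methoxy PMS, 4 h, A415. Output: % viability.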

Row | SMILES | antibacterial activity [1] | H+/Na+ transport activity normalized against the value of 1 (1.00) [2] | cell viability/% [3] [%]
1 | CC(C)C[C@@H](NC(=O)[C@H](C)NC(=O)CNC(=O)[C@@H](NC=O)C(C)C)C(=O)N[C@@H](C)C(=O)N[C@@H](C(=O)N[C@H](C(=O)N[C@@H](C(=O)N[C@@H](Cc1c[nH]c2ccccc12)C(=O)N[C@@H](C(=O)N[C@@H](Cc1c[nH]c2ccccc12)C(=O)N[C@H](CC(C)C)C(=O)N[C@@H](Cc1c[nH]c2ccccc12)C(=O)N[C@@H](C(=O)N[C@@H](Cc1c[nH]c2ccccc12)C(=O)NCCO)C(C)C)C(C)C)C(C)C)C(C)C)C(C)C [compound 5393] (For-VGA[dL]A[dV]V[dV]W[dV]W[dL]W[dV]W-NHCH2CH2OH) | + | 1.32 | 100.0
2 | CC(C)C[C@@H](NC(=O)[C@H](C)NC(=O)CNC(=O)[C@@H](NC=O)C(C)C)C(=O)N[C@@H](C)C(=O)N[C@H](CC(C)C)C(=O)N[C@H](C(=O)N[C@@H](C(=O)N[C@@H](Cc1c[nH]c2ccccc12)C(=O)N[C@H](CC(C)C)C(=O)N[C@@H](Cc1c[nH]c2ccccc12)C(=O)N[C@H](CC(C)C)C(=O)N[C@@H](Cc1c[nH]c2ccccc12)C(=O)N[C@@H](C(=O)N[C@@H](Cc1c[nH]c2ccccc12)C(=O)NCCO)C(C)C)[C@H](C)O)C(C)C [compound 4690] (For-VGA[dL]A[dL]V[dT]W[dL]W[dL]W[dV]W-NHCH2CH2OH) | + | 1.01 | 100.0
3 | CC(C)C[C@@H](NC(=O)[C@H](C)NC(=O)CNC(=O)[C@@H](NC=O)C(C)C)C(=O)N[C@@H](C)C(=O)N[C@@H](C(=O)N[C@H](C(=O)N[C@@H](C(=O)N[C@@H](Cc1c[nH]c2ccccc12)C(=O)N[C@@H](C(=O)N[C@@H](Cc1c[nH]c2ccccc12)C(=O)N[C@H](CC(C)C)C(=O)N[C@@H](Cc1c[nH]c2ccccc12)C(=O)N[C@@H](C(=O)N[C@@H](Cc1c[nH]c2ccccc12)C(=O)NCCO)C(C)C)C(C)C)C(C)C)C(C)C)[C@H](C)O [compound 10415] (For-VGA[dL]A[dT]V[dV]W[dV]W[dL]W[dV]W-NHCH2CH2OH) | - | 1.02 | 100.0
4 | CC(C)C[C@@H](NC(=O)[C@H](C)NC(=O)CNC(=O)[C@@H](NC=O)C(C)C)C(=O)N[C@@H](C)C(=O)N[C@H](CC(C)C)C(=O)N[C@H](C(=O)N[C@@H](C(=O)N[C@@H](Cc1c[nH]c2ccccc12)C(=O)N[C@H](CC(C)C)C(=O)N[C@@H](Cc1c[nH]c2ccccc12)C(=O)N[C@@H](C(=O)N[C@@H](Cc1c[nH]c2ccccc12)C(=O)N[C@H](CC(C)C)C(=O)N[C@@H](Cc1c[nH]c2ccccc12)C(=O)NCCO)[C@H](C)O)[C@H](C)O)C(C)C [compound 3780] (For-VGA[dL]A[dL]V[dT]W[dL]W[dT]W[dL]W-NHCH2CH2OH) | - | 1.16 | 100.0
5 | CC(C)C[C@@H](NC(=O)[C@H](C)NC(=O)[C@H](NC(=O)[C@H](C)NC(=O)CNC(=O)[C@@H](NC=O)C(C)C)C(C)C)C(=O)N[C@H](C(=O)N[C@@H](C(=O)N[C@@H](Cc1c[nH]c2ccccc12)C(=O)N[C@H](CC(C)C)C(=O)N[C@@H](Cc1c[nH]c2ccccc12)C(=O)N[C@H](CC(C)C)C(=O)N[C@@H](Cc1c[nH]c2ccccc12)C(=O)N[C@H](CC(C)C)C(=O)N[C@@H](Cc1c[nH]c2ccccc12)C(=O)NCCO)C(C)C)C(C)C [compound 9897] (For-VGA[dV]A[dL]V[dV]W[dL]W[dL]W[dL]W-NHCH2CH2OH) | + | 1.04 | 8.1
6 | CNC(=O)C[C@@H](NC(=O)[C@H](C)NC(=O)[C@@H](CC(C)C)NC(=O)[C@H](C)NC(=O)CNC(=O)[C@@H](NC=O)C(C)C)C(=O)N[C@H](C(=O)N[C@@H](C(=O)N[C@@H](Cc1c[nH]c2ccccc12)C(=O)N[C@H](CC(C)C)C(=O)N[C@@H](Cc1c[nH]c2ccccc12)C(=O)N[C@@H](C(=O)N[C@@H](Cc1c[nH]c2ccccc12)C(=O)N[C@H](CC(C)C)C(=O)N[C@@H](Cc1c[nH]c2ccccc12)C(=O)NCCO)C(C)C)C(C)C)C(C)C [compound 13123] (For-VGA[dL]A[dD](NHMe)V[dV]W[dL]W[dV]W[dL]W-NHCH2CH2OH) | - | 1.24 | 100.0
7 | CC(C)C[C@@H](NC(=O)[C@H](C)NC(=O)CNC(=O)[C@@H](NC=O)C(C)C)C(=O)N[C@@H](C)C(=O)N[C@H](CC(C)C)C(=O)N[C@H](C(=O)N[C@H](CC(C)C)C(=O)N[C@@H](Cc1c[nH]c2ccccc12)C(=O)N[C@@H](C(=O)N[C@@H](Cc1c[nH]c2ccccc12)C(=O)N[C@H](CC(C)C)C(=O)N[C@@H](Cc1c[nH]c2ccccc12)C(=O)N[C@@H](C(=O)N[C@@H](Cc1c[nH]c2ccccc12)C(=O)NCCO)C(C)C)C(C)C)C(C)C [compound 1751] (For-VGA[dL]A[dL]V[dL]W[dV]W[dL]W[dV]W-NHCH2CH2OH) | - | 1.05 | 0.0
8 | CC(C)C[C@@H](NC(=O)[C@H](Cc1c[nH]c2ccccc12)NC(=O)[C@@H](CC(C)C)NC(=O)[C@H](Cc1c[nH]c2ccccc12)NC(=O)[C@H](NC(=O)[C@H](Cc1c[nH]c2ccccc12)NC(=O)[C@@H](CC(C)C)NC(=O)[C@@H](NC(=O)[C@H](NC(=O)[C@H](C)NC(=O)[C@H](NC(=O)[C@H](C)NC(=O)CNC(=O)[C@@H](NC=O)C(C)C)C(C)C)C(C)C)C(C)C)C(C)C)C(=O)N[C@@H](Cc1c[nH]c2ccccc12)C(=O)NCCO [compound 8999] (For-VGA[dV]A[dV]V[dL]W[dV]W[dL]W[dL]W-NHCH2CH2OH) | + | 1.03 | 96.1
9 | CNC(=O)C[C@@H](NC(=O)[C@@H](NC(=O)[C@@H](CC(C)C)NC(=O)[C@H](C)NC(=O)[C@@H](CC(C)C)NC(=O)[C@H](C)NC(=O)CNC(=O)[C@@H](NC=O)C(C)C)C(C)C)C(=O)N[C@@H](Cc1c[nH]c2ccccc12)C(=O)N[C@H](CC(C)C)C(=O)N[C@@H](Cc1c[nH]c2ccccc12)C(=O)N[C@@H](C(=O)N[C@@H](Cc1c[nH]c2ccccc12)C(=O)N[C@H](CC(C)C)C(=O)N[C@@H](Cc1c[nH]c2ccccc12)C(=O)NCCO)C(C)C [compound 173] (For-VGA[dL]A[dL]V[dD](NHMe)W[dL]W[dV]W[dL]W-NHCH2CH2OH) | - | 1.07 | 100.0
10 | CC(C)C[C@@H](NC(=O)[C@H](C)NC(=O)[C@H](NC(=O)[C@H](C)NC(=O)CNC(=O)[C@@H](NC=O)C(C)C)C(C)C)C(=O)N[C@H](C(=O)N[C@@H](C(=O)N[C@@H](Cc1c[nH]c2ccccc12)C(=O)N[C@@H](C(=O)N[C@@H](Cc1c[nH]c2ccccc12)C(=O)N[C@@H](C(=O)N[C@@H](Cc1c[nH]c2ccccc12)C(=O)N[C@H](CC(C)C)C(=O)N[C@@H](Cc1c[nH]c2ccccc12)C(=O)NCCO)C(C)C)C(C)C)[C@H](C)O)C(C)C [compound 4395] (For-VGA[dV]A[dL]V[dT]W[dV]W[dV]W[dL]W-NHCH2CH2OH) | - | 1.07 | 100.0
11 | CC(C)C[C@@H](NC(=O)[C@H](Cc1c[nH]c2ccccc12)NC(=O)[C@H](NC(=O)[C@H](Cc1c[nH]c2ccccc12)NC(=O)[C@H](NC(=O)[C@H](Cc1c[nH]c2ccccc12)NC(=O)[C@@H](CC(C)C)NC(=O)[C@@H](NC(=O)[C@H](NC(=O)[C@H](C)NC(=O)[C@H](NC(=O)[C@H](C)NC(=O)CNC(=O)[C@@H](NC=O)C(C)C)C(C)C)C(C)C)C(C)C)C(C)C)C(C)C)C(=O)N[C@@H](Cc1c[nH]c2ccccc12)C(=O)NCCO [compound 448] (For-VGA[dV]A[dV]V[dL]W[dV]W[dV]W[dL]W-NHCH2CH2OH) | + | 1.07 | 34.1
12 | CC(C)C[C@@H](NC(=O)[C@H](Cc1c[nH]c2ccccc12)NC(=O)[C@H](NC(=O)[C@H](Cc1c[nH]c2ccccc12)NC(=O)[C@@H](CC(C)C)NC(=O)[C@H](Cc1c[nH]c2ccccc12)NC(=O)[C@H](NC(=O)[C@@H](NC(=O)[C@H](NC(=O)[C@H](C)NC(=O)[C@H](NC(=O)[C@H](C)NC(=O)CNC(=O)[C@@H](NC=O)C(C)C)C(C)C)C(C)C)C(C)C)[C@H](C)O)C(C)C)C(=O)N[C@@H](Cc1c[nH]c2ccccc12)C(=O)NCCO [compound 7702] (For-VGA[dV]A[dV]V[dT]W[dL]W[dV]W[dL]W-NHCH2CH2OH) | - | 1.01 | 100.0
13 | CC(C)C[C@@H](NC(=O)[C@H](C)NC(=O)[C@H](NC(=O)[C@H](C)NC(=O)CNC(=O)[C@@H](NC=O)C(C)C)[C@H](C)O)C(=O)N[C@H](C(=O)N[C@H](CC(C)C)C(=O)N[C@@H](Cc1c[nH]c2ccccc12)C(=O)N[C@@H](C(=O)N[C@@H](Cc1c[nH]c2ccccc12)C(=O)N[C@H](CC(C)C)C(=O)N[C@@H](Cc1c[nH]c2ccccc12)C(=O)N[C@H](CC(C)C)C(=O)N[C@@H](Cc1c[nH]c2ccccc12)C(=O)NCCO)C(C)C)C(C)C [compound 11561] (For-VGA[dT]A[dL]V[dL]W[dV]W[dL]W[dL]W-NHCH2CH2OH) | - | 1.01 | 100.0
